Laboratory results: patent US4113766A, “Oxaprostaglandins” (Pfizer Inc., priority 1975, dated 1978)

Legend:
early pregnant rat = test: induction of abortion in early pregnant rats; assay type: in vivo
From the text: (§1) These tests include, among others, a test for effect on isolated smooth muscle from guinea pig ileum and rat uterus, a test for effect on histamine induced bronchospasm in guinea pig, a test for effects on dog blood pressure, a test for induction of diarrhea in mice, and a test for the induction of abortion in early pregnant rats.
On the basis of the difference seen in the rat uterus and guinea pig ileum tests with 19-oxaprostaglandin E2, one would expect to have a reduction of the unpleasant gastrointestinal side effects which were encountered when natural PGE2 was employed as an abortion inducer (Lancet, 536, 1971).

estrogenized rat uterus = test: spasmogenic effect on estrogenized rat uterus in vitro; assay type: tissue-based; details: in words; rat uterus vs guinea pig ileum, Table I
From the text: as §1
^(c) Threshold dose for spasmogenic effect on estrogenized rat uterus

[1] = system: histamine induced bronchospasm; test: protection by aerosol against histamine induced bronchospasm in guinea pig; assay type: in vivo; details: in words, from Table I
Protocol: as §1
^(b) Per cent protection by 100 μg/ml aerosol dose for histamine
induced bronchospasm in the guinea pig.

Row | SMILES | effectiveness relative to natural PGE2 in inducing abortion (early pregnant rat) | tissue selectivity (estrogenized rat uterus) | bronchodilator selectivity versus natural PGE2 [1]
1 | COCCC[C@H](O)/C=C/[C@H]1[C@H](O)CC(=O)[C@@H]1C/C=C\CCCC(=O)O [19-oxa PGE2, 9-oxo-11α,15α-dihydroxy-19-oxa-cis-5-trans-13-prostadienoic acid] | as effective as natural PGE2 | advantage of tissue selectivity | 
2 | CCOCCC[C@H](O)/C=C/[C@H]1[C@H](O)CC(=O)[C@@H]1C/C=C\CCCC(=O)O [19-oxa-ω-homo-PGE2, 9-oxo-11α,15α-dihydroxy-19-oxa-cis-5-trans-13-w-homo-prostadienoic acid] |  |  | more selective bronchodilator than natural PGE2
